Source: US20060234942A1, “Use of at least one $g(a)62 casein peptide with angiotensin i converting enzyme inhibiting activity for preparing medicines, food products and food complements” (priority 2002, published 2006)
Several values for one entry are separate records, joined by “and”; a condition that tells them apart may be missing. Identical values can stand only once. Residues, ends and D or L forms follow the SMILES beside them.

Columns and labels:
[1] = biological target: angiotensin I converting enzyme (ACE) (Homo sapiens, UniProt P12821); test: biochemical; conditions: for IC50: IC50 (μM), synthetic peptides, tested in triplicate, deduced from linearized inhibition curve; for inhibition at 50 µM: primary amine or captopril concentration equal to 50 μM, chromatographic peaks collected from trypsic hydrolysate of αS2 casein, tested twice
[2] = biological target: angiotensin I converting enzyme (Homo sapiens, UniProt P12821); conditions: Maeno et al. (13); read-out: IC50, quantity of peptide needed for inhibiting 50% of the enzyme activity; cited from earlier work
[3] = system: spontaneously hypertensive rats; conditions: 6 hours after oral administration of 1 mg synthesized peptide per kg, Maeno et al. (13); cited from earlier work
bacteria = conditions: Zucht et al. (10); Recio and Visser (11); cited from earlier work

angiotensin I converting enzyme, sequence (P12821 30-1306): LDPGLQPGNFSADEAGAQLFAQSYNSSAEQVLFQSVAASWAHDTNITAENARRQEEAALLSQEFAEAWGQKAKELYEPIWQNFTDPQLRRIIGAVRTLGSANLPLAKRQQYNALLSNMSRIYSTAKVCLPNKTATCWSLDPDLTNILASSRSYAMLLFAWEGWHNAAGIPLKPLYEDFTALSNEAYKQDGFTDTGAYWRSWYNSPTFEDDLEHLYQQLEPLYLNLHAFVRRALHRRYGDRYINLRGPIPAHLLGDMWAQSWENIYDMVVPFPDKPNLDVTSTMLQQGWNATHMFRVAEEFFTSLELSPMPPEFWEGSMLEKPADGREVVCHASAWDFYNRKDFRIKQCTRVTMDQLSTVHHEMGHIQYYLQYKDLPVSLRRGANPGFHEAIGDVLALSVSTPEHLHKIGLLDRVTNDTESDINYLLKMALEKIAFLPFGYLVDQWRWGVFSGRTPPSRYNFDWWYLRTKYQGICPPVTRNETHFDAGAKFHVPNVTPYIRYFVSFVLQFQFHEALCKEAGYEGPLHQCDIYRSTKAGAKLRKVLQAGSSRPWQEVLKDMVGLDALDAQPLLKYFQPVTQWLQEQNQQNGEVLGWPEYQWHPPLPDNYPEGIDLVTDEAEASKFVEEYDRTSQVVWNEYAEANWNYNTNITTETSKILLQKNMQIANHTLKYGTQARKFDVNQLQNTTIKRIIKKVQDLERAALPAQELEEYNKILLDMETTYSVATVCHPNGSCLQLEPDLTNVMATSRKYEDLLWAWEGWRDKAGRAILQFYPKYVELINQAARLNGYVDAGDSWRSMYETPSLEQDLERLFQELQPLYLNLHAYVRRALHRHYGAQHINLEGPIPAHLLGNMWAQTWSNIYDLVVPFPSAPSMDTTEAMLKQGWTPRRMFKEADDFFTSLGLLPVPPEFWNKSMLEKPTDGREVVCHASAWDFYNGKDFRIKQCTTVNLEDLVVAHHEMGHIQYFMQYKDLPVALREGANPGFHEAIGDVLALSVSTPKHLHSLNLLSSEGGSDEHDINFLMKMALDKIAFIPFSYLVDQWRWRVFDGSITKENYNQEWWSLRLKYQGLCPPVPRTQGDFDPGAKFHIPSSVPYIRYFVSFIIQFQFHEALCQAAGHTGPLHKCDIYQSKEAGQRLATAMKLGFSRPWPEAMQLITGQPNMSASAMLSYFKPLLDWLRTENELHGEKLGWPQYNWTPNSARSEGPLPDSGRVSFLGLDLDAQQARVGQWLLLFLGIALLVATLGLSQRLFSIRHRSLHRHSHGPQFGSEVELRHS
angiotensin I converting enzyme (ACE), sequence (P12821 30-1306, species assumed): as the sequence (P12821 30-1306) above

Molecule | IC50 [1] | inhibition at 50 µM [1] | further results
CC[C@H](C)[C@H](NC(=O)[C@H](C)NC(=O)[C@H](CCSC)NC(=O)[C@@H](N)CC(N)=O)C(=O)N[C@@H](CC(N)=O)C(=O)N1CCC[C@H]1C(=O)O [CNαS2-(f25-30), Asn-Met-Ala-Ile-Asn-Pro] (H-NMAINP-OH) | < 60 µM | – | –
CC[C@H](C)[C@H](NC(=O)[C@H](CCC(=O)O)NC(=O)[C@H](CC(N)=O)NC(=O)[C@H](CC(C)C)NC(=O)[C@H](C)N)C(=O)N[C@@H](CC(N)=O)C(=O)N[C@@H](CCC(N)=O)C(=O)N[C@@H](Cc1ccccc1)C(=O)N[C@@H](Cc1ccc(O)cc1)C(=O)N[C@@H](CCC(N)=O)C(=O)N[C@@H](CCCCN)C(=O)O [CNαS2-(f81-91)] (H-ALNEINQFYQK-OH; N-terminus and C-terminus assumed) | – | 27.2% | –
CC[C@H](C)[C@H](NC(=O)[C@H](C)NC(=O)[C@H](CCSC)NC(=O)[C@@H](N)CC(N)=O)C(=O)N[C@@H](CC(N)=O)C(=O)N1CCC[C@H]1C(=O)N[C@@H](CO)C(=O)N[C@@H](CCCCN)C(=O)O [CNαS2-(f25-32)] (H-NMAINPSK-OH; N-terminus and C-terminus assumed) | < 60 µM | 42.5% | –
CNαS2-(f190-197): αS2 casein peptide 190-197, ACE inhibitor reported by Maeno et al. (13) (MKPWIQPK; UniProt P02663 205-212, looked up, fragment) | – | – | IC50 [2]: 300 µM; antihypertensive effect in vivo [3]: do not present any significant antihypertensive effect
CNαS2-(f164-179): αS2 casein peptide with antibacterial activity, Recio and Visser (11) (LKKISQRYQKFALPQY; UniProt P02663 179-194, looked up, fragment) | – | – | antibacterial activity (bacteria): antibacterial activity
CNαS2-(f189-193): αS2 casein peptide 189-193, ACE inhibitor reported by Maeno et al. (13) (AMKPW; UniProt P02663 204-208, looked up, fragment) | – | – | IC50 [2]: 580 µM; antihypertensive effect in vivo [3]: do not present any significant antihypertensive effect
CNαS2-(f165-203): αS2 casein peptide with antibacterial activity, Zucht et al. (10) (KKISQRYQKFALPQYLKTVYQHQKAMKPWIQPKTKVIPY; UniProt P02663 180-218, looked up, fragment) | – | – | antibacterial activity (bacteria): antibacterial activity
CNαS2-(f198-202): αS2 casein peptide 198-202, ACE inhibitor reported by Maeno et al. (13) (TKVIP; UniProt P02663 213-217, looked up, fragment) | – | – | IC50 [2]: 400 µM; antihypertensive effect in vivo [3]: do not present any significant antihypertensive effect

Further lines, with some results ahead:

IC50 [1] | inhibition at 50 µM [1] | Molecule | further results
< 60 µM | > 70% | CC(C)[C@H](NC(=O)[C@@H](N)[C@@H](C)O)C(=O)N[C@@H](Cc1ccc(O)cc1)C(=O)O [CNαS2-(f182-184), Thr-Val-Tyr] (H-Thr-Val-Tyr-OH; N-terminus and C-terminus assumed) | –
< 60 µM and 4.3 µM | > 70% | CC(C)C[C@H](NC(=O)[C@H](C)NC(=O)[C@@H](N)Cc1ccccc1)C(=O)N1CCC[C@H]1C(=O)N[C@@H](CCC(N)=O)C(=O)N[C@@H](Cc1ccc(O)cc1)C(=O)O [CNαS2-(f174-179), Phe-Ala-Leu-Pro-Gln-Tyr] (H-FALPQY-OH; N-terminus and C-terminus assumed) | –
– | 32.2% | CC[C@H](C)[C@H](NC(=O)[C@H](CCC(=O)O)NC(=O)[C@H](CC(N)=O)NC(=O)[C@H](CC(C)C)NC(=O)[C@H](C)N)C(=O)N[C@@H](CC(N)=O)C(=O)N[C@@H](CCC(N)=O)C(=O)N[C@@H](Cc1ccccc1)C(=O)N[C@@H](Cc1ccc(O)cc1)C(=O)O [CNαS2-(f81-89)] (H-ALNEINQFY-OH; N-terminus and C-terminus assumed) | –
< 60 µM | > 70% | CC(C)C[C@H](NC(=O)[C@H](Cc1ccc(O)cc1)NC(=O)[C@H](CCC(N)=O)NC(=O)[C@@H]1CCCN1C(=O)[C@@H](N)Cc1ccccc1)C(=O)N[C@@H](CCC(N)=O)C(=O)N[C@@H](Cc1ccc(O)cc1)C(=O)O [CNαS2-(f92-98), Phe-Pro-Gln-Tyr-Leu-Gln-Tyr] (H-FPQYLQY-OH; N-terminus and C-terminus assumed) | –
< 60 µM and 4.3 µM | > 70% | CC(C)C[C@H](NC(=O)[C@H](Cc1ccc(O)cc1)NC(=O)[C@H](CCC(N)=O)NC(=O)[C@@H]1CCCN1C(=O)[C@H](CC(C)C)NC(=O)[C@H](C)NC(=O)[C@@H](N)Cc1ccccc1)C(=O)N[C@@H](CCCCN)C(=O)O [CNαS2-(f174-181)] (H-FALPQYLK-OH; N-terminus and C-terminus assumed) | –
< 60 µM | – | CC(C)C[C@H](NC(=O)[C@H](C)NC(=O)[C@@H](N)Cc1ccccc1)C(=O)N1CCC[C@H]1C(=O)O [CNαS2-(f174-177), Phe-Ala-Leu-Pro] (H-FALP-OH) | –
